Source: patent US11858905B1, “Cathepsin L inhibitors” (priority 2023, dated 2024)
Where two headings read alike, the source gives them in different places.

Key:
human CatL = human CatL (Homo sapiens (Human), UniProt P07711); test: Human Cathepsin L (CatL) enzymatic assay; type: biochemical
Method: Human Cathepsin L (CatL) Enzymatic Assay
60 μL of the compounds were added to 384-well dilution plate. The compound solution was diluted for 1:3 in succession in DMSO for each column for 10 pts. 0.05 μL diluted compound solution was added in each row to 384 assay plates (Corning 4514) using Echo (LABCYTE 655), each column containing 2 replicates. 5 μL working solution of human CatL enzyme (Abcam #ab81780) was added to 384-well assay plate, centrifuge 1000 rpm for 1 min. The mixture was incubated at […] for 15 min, then add 5 μL working solution of CatL substrate (Genscript #C7360HB140_5) to initiate the reaction (CatL: 0.05 nM, Substrate: 500 nM). Incubate at […] for 30 min. Reading Ex370 nm and Em460 nm fluorescence signals with BMG CLARIO Star Plusaucu. Percent inhibition for each compound was calculated and IC50 (half maximal inhibitory concentration) was fitted from non-linear regression by XLfit 5.5.0.

SARS-CoV-2 PsVs = test: microbe, parasite or virus in culture; type: cell-based; details: Severe acute respiratory syndrome coronavirus 2, Vero C1008, 24 h; for activity at 0.5 µM: read-out: % Infection rate at 500 nM; for activity at 5 µM: read-out: % Infection rate at 5 uM
[1] = CatL 0.05 nM, substrate 500 nM, pH 5.5, read-out: Enzymatic inhibition IC50
[2] = summary of Table 2, read-out: IC50 for inhibiting CatL

Chain of human CatL (P07711 whole entry, looked up): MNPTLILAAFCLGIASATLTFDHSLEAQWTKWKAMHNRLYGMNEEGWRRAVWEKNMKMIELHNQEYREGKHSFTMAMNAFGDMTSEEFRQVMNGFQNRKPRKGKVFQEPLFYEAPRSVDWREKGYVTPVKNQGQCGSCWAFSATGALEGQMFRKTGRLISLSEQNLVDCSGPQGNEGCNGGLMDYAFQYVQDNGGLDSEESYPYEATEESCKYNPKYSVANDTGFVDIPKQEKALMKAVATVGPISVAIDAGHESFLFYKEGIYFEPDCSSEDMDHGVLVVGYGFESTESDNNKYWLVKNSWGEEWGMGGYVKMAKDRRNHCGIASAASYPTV

Structure (SMILES): N#CC1(NC(=O)[C@H](Cc2nc3ccccc3o2)NC(=O)c2cccc(Cl)c2)CC1 [Compound 1, (S)—N-(3-(benzo[d]oxazol-2-yl)-1-((1-cyanocyclopropyl)amino)-1-oxopropan-2-yl)-3-chlorobenzamide]
- IC50 (human CatL; [1]): 14.1 nM
- activity at 0.5 µM (SARS-CoV-2 PsVs): 69%
- activity at 5 µM (SARS-CoV-2 PsVs): 39%

Structure (SMILES): N#CC1(NC(=O)[C@H](Cc2nc3c(Br)cccc3o2)NC(=O)c2cccc(Cl)c2)CC1 [Compound 2, (S)—N-(3-(4-bromobenzo[d]oxazol-2-yl)-1-((1-cyanocyclopropyl)amino)-1-oxopropan-2-yl)-3-chlorobenzamide]
- IC50 (human CatL; [1]): 7.5 nM
- IC50 (human CatL; [2]): < 10 nM
- activity at 0.5 µM (SARS-CoV-2 PsVs): 55%
- activity at 5 µM (SARS-CoV-2 PsVs): 12%

Structure (SMILES): N#CC1(NC(=O)[C@H](Cc2nc3cccc(Br)c3o2)NC(=O)c2cccc(Cl)c2)CC1 [Compound 3, (S)—N-(3-(7-bromobenzo[d]oxazol-2-yl)-1-((1-cyanocyclopropyl)amino)-1-oxopropan-2-yl)-3-chlorobenzamide]
- IC50 (human CatL; [1]): 5.9 nM
- IC50 (human CatL; [2]): < 10 nM
- activity at 0.5 µM (SARS-CoV-2 PsVs): 65%
- activity at 5 µM (SARS-CoV-2 PsVs): 10%

Structure (SMILES): N#CC1(NC(=O)[C@H](Cc2nc3ccc(F)cc3o2)NC(=O)c2cccc(Cl)c2)CC1 [Compound 4, (S)-3-chloro-N-(1-((1-cyanocyclopropyl)amino)-3-(6-fluorobenzo[d]oxazol-2-yl)-1-oxopropan-2-yl)benzamide]
- IC50 (human CatL; [1]): 34.9 nM
- activity at 0.5 µM (SARS-CoV-2 PsVs): 81%
- activity at 5 µM (SARS-CoV-2 PsVs): 51%

Structure (SMILES): N#Cc1cccc2nc(C[C@H](NC(=O)c3cccc(Cl)c3)C(=O)NC3(C#N)CC3)oc12 [Compound 5, (S)-3-chloro-N-(3-(7-cyanobenzo[d]oxazol-2-yl)-1-((1-cyanocyclopropyl)amino)-1-oxopropan-2-yl)benzamide]
- IC50 (human CatL; [1]): 122 nM
- activity at 0.5 µM (SARS-CoV-2 PsVs): 91%
- activity at 5 µM (SARS-CoV-2 PsVs): 81%

Structure (SMILES): N#CC1(NC(=O)[C@H](Cc2nc3cccc(Cl)c3o2)NC(=O)c2cccc(Cl)c2)CC1 [Compound 6, (S)-3-chloro-N-(3-(7-chlorobenzo[d]oxazol-2-yl)-1-((1-cyanocyclopropyl)amino)-1-oxopropan-2-yl)benzamide]
- IC50 (human CatL; [1]): 7 nM
- IC50 (human CatL; [2]): < 10 nM
- activity at 0.5 µM (SARS-CoV-2 PsVs): 75%
- activity at 5 µM (SARS-CoV-2 PsVs): 20%

Structure (SMILES): N#CC1(NC(=O)[C@H](Cc2nc3c(Cl)cccc3o2)NC(=O)c2cccc(Cl)c2)CC1 [Compound 7, (S)-3-chloro-N-(3-(4-chlorobenzo[d]oxazol-2-yl)-1-((1-cyanocyclopropyl)amino)-1-oxopropan-2-yl)benzamide]
- IC50 (human CatL; [1]): 21.1 nM
- activity at 0.5 µM (SARS-CoV-2 PsVs): 96%
- activity at 5 µM (SARS-CoV-2 PsVs): 48%

Structure (SMILES): N#CC1(NC(=O)[C@H](Cc2nc3cc(Cl)ccc3o2)NC(=O)c2cccc(Cl)c2)CC1 [Compound 8, (S)-3-chloro-N-(3-(5-chlorobenzo[d]oxazol-2-yl)-1-((1-cyanocyclopropyl)amino)-1-oxopropan-2-yl)benzamide]
- IC50 (human CatL; [1]): 17.4 nM
- activity at 0.5 µM (SARS-CoV-2 PsVs): 92%
- activity at 5 µM (SARS-CoV-2 PsVs): 69%

Structure (SMILES): N#CC1(NC(=O)[C@H](Cc2nc3ccc(Cl)cc3o2)NC(=O)c2cccc(Cl)c2)CC1 [Compound 9, (S)-3-chloro-N-(3-(6-chlorobenzo[d]oxazol-2-yl)-1-((1-cyanocyclopropyl)amino)-1-oxopropan-2-yl)benzamide]
- IC50 (human CatL; [1]): 30.5 nM
- activity at 0.5 µM (SARS-CoV-2 PsVs): 97%
- activity at 5 µM (SARS-CoV-2 PsVs): 73%

Structure (SMILES): N#CC1(NC(=O)[C@H](Cc2nc3cc(C(F)(F)F)ccc3o2)NC(=O)c2cccc(Cl)c2)CC1 [Compound 10, (S)-3-chloro-N-(1-((1-cyanocyclopropyl)amino)-1-oxo-3-(5-(trifluoromethyl)benzo[d]oxazol-2-yl)propan-2-yl)benzamide]
- IC50 (human CatL; [1]): 51.5 nM
- activity at 0.5 µM (SARS-CoV-2 PsVs): 97%
- activity at 5 µM (SARS-CoV-2 PsVs): 96%

Structure (SMILES): N#CC1(NC(=O)[C@H](Cc2nc3ccc(C(F)(F)F)cc3o2)NC(=O)c2cccc(Cl)c2)CC1 [Compound 11, (S)-3-chloro-N-(1-((1-cyanocyclopropyl)amino)-1-oxo-3-(6-(trifluoromethyl)benzo[d]oxazol-2-yl)propan-2-yl)benzamide]
- IC50 (human CatL; [1]): 94.6 nM
- activity at 0.5 µM (SARS-CoV-2 PsVs): 86%
- activity at 5 µM (SARS-CoV-2 PsVs): 81%

Structure (SMILES): N#CC1(NC(=O)[C@H](Cc2nc3cccc(C(F)(F)F)c3o2)NC(=O)c2cccc(Cl)c2)CC1 [Compound 12, (S)-3-chloro-N-(1-((1-cyanocyclopropyl)amino)-1-oxo-3-(7-(trifluoromethyl)benzo[d]oxazol-2-yl)propan-2-yl)benzamide]
- IC50 (human CatL; [1]): 235 nM

Structure (SMILES): Cn1nc(C(C)(C)C)cc1C(=O)N[C@@H](Cc1nc2ccccc2o1)C(=O)NC1(C#N)CC1 [Compound 13, (S)—N-(3-(benzo[d]oxazol-2-yl)-1-((1-cyanocyclopropyl)amino)-1-oxopropan-2-yl)-3-(tert-butyl)-1-methyl-1H-pyrazole-5-carboxamide]
- IC50 (human CatL; [1]): 3.9 nM
- IC50 (human CatL; [2]): < 10 nM
- activity at 0.5 µM (SARS-CoV-2 PsVs): 55%
- activity at 5 µM (SARS-CoV-2 PsVs): 10%

Structure (SMILES): Cc1cccc(C(=O)N[C@@H](Cc2nc3ccccc3o2)C(=O)NC2(C#N)CC2)n1 [Compound 14, (S)—N-(3-(benzo[d]oxazol-2-yl)-1-((1-cyanocyclopropyl)amino)-1-oxopropan-2-yl)-6-methylpicolinamide]
- IC50 (human CatL; [1]): 534 nM
- activity at 0.5 µM (SARS-CoV-2 PsVs): 103%
- activity at 5 µM (SARS-CoV-2 PsVs): 97%

Structure (SMILES): N#CCNC(=O)[C@H](Cc1nc2ccccc2o1)NC(=O)c1cc(C2CC2)nn1C1CC1 [Compound 15, (S)—N-(3-(benzo[d]oxazol-2-yl)-1-((cyanomethyl)amino)-1-oxopropan-2-yl)-1,3-dicyclopropyl-1H-pyrazole-5-carboxamide]
- IC50 (human CatL; [1]): 19.4 nM
- IC50 (human CatL; [2]): < 50 nM
- activity at 0.5 µM (SARS-CoV-2 PsVs): 79%
- activity at 5 µM (SARS-CoV-2 PsVs): 20%

Structure (SMILES): Cc1nn(C2CC2)cc1C(=O)N[C@@H](Cc1nc2ccccc2o1)C(=O)NC1(C#N)CC1 [Compound 16, (S)—N-(3-(benzo[d]oxazol-2-yl)-1-((1-cyanocyclopropyl)amino)-1-oxopropan-2-yl)-1-cyclopropyl-3-methyl-1H-pyrazole-4-carboxamide]
- IC50 (human CatL; [1]): 139 nM

Structure (SMILES): Cc1nn(C2CC2)cc1C(=O)N[C@@H](Cc1nc2cc(F)c(F)cc2o1)C(=O)NC1(C#N)CC1 [Compound 17, (S)—N-(1-((1-cyanocyclopropyl)amino)-3-(5,6-difluorobenzo[d]oxazol-2-yl)-1-oxopropan-2-yl)-1-cyclopropyl-3-methyl-1H-pyrazole-4-carboxamide]
- IC50 (human CatL; [1]): 201 nM

Structure (SMILES): N#CC1(NC(=O)[C@H](Cc2nc3ccccc3o2)NC(=O)c2cn(C3CC3)nc2C(F)(F)F)CC1 [Compound 18, (S)—N-(3-(benzo[d]oxazol-2-yl)-1-((1-cyanocyclopropyl)amino)-1-oxopropan-2-yl)-1-cyclopropyl-3-(trifluoromethyl)-1H-pyrazole-4-carboxamide]
- IC50 (human CatL; [1]): 50.7 nM
- activity at 0.5 µM (SARS-CoV-2 PsVs): 92%
- activity at 5 µM (SARS-CoV-2 PsVs): 72.6%

Structure (SMILES): N#CC1(NC(=O)[C@H](Cc2nc3ccccc3o2)NC(=O)c2cn(C3CC3)nc2C(F)F)CC1 [Compound 19, (S)—N-(3-(benzo[d]oxazol-2-yl)-1-((1-cyanocyclopropyl)amino)-1-oxopropan-2-yl)-1-cyclopropyl-3-(difluoromethyl)-1 H-pyrazole-4-carboxamide]
- IC50 (human CatL; [1]): 44.6 nM
- activity at 0.5 µM (SARS-CoV-2 PsVs): 101%
- activity at 5 µM (SARS-CoV-2 PsVs): 77.3%

Structure (SMILES): CC(C)(C)c1cc(C(=O)N[C@@H](Cc2nc3cccc(Cl)c3o2)C(=O)NC2(C#N)CC2)n(C2CC2)n1 [Compound 20, (S)-3-(tert-butyl)-N-(3-(7-chlorobenzo[d]oxazol-2-yl)-1-((1-cyanocyclopropyl)amino)-1-oxopropan-2-yl)-1-cyclopropyl-1H-pyrazole-5-carboxamide]
- IC50 (human CatL; [1]): 4.2 nM
- activity at 0.5 µM (SARS-CoV-2 PsVs): 40%
- activity at 5 µM (SARS-CoV-2 PsVs): 6.3%

Structure (SMILES): CC(C)(C)c1cc(C(=O)N[C@@H](Cc2nc3cc(F)cc(Cl)c3o2)C(=O)NC2(C#N)CC2)n(C2CC2)n1 [Compound 21, (S)-3-(tert-butyl)-N-(3-(7-chloro-5-fluorobenzo[d]oxazol-2-yl)-1-((1-cyanocyclopropyl)amino)-1-oxopropan-2-yl)-1-cyclopropyl-1 H-pyrazole-5-carboxamide]
- IC50 (human CatL; [1]): 8.2 nM
- activity at 0.5 µM (SARS-CoV-2 PsVs): 60%
- activity at 5 µM (SARS-CoV-2 PsVs): 12%

Structure (SMILES): CC(C)(C)c1cc(C(=O)N[C@@H](Cc2nc3cc(F)cc(Cl)c3o2)C(=O)NC2(C#N)CC2)n(C2COC2)n1 [Compound 22, (S)-3-(tert-butyl)-N-(3-(7-chloro-5-fluorobenzo[d]oxazol-2-yl)-1-((1-cyanocyclopropyl)amino)-1-oxopropan-2-yl)-1-(oxetan-3-yl)-1H-pyrazole-5-carboxamide]
- IC50 (human CatL; [1]): 5.3 nM
- activity at 0.5 µM (SARS-CoV-2 PsVs): 33%
- activity at 5 µM (SARS-CoV-2 PsVs): 13%

Structure (SMILES): N#CC1(NC(=O)[C@H](Cc2nc3c(-c4cn[nH]c4)cccc3o2)NC(=O)c2cccc(Cl)c2)CC1 [Compound 23, (S)—N-(3-(4-(1H-pyrazol-4-yl)benzo[d]oxazol-2-yl)-1-((1-cyanocyclopropyl)amino)-1-oxopropan-2-yl)-3-chlorobenzamide]
- IC50 (human CatL; [1]): 361 nM
- activity at 0.5 µM (SARS-CoV-2 PsVs): 93%
- activity at 5 µM (SARS-CoV-2 PsVs): 98%

Structure (SMILES): CN1CCN(c2ccc3nc(C[C@H](NC(=O)c4cccc(Cl)c4)C(=O)NC4(C#N)CC4)oc3c2)CC1 [Compound 24, (S)-3-chloro-N-(1-((1-cyanocyclopropyl)amino)-3-(6-(4-methylpiperazin-1-yl)benzo[d]oxazol-2-yl)-1-oxopropan-2-yl)benzamide]
- IC50 (human CatL; [1]): 9.7 nM
- IC50 (human CatL; [2]): < 10 nM
- activity at 0.5 µM (SARS-CoV-2 PsVs): 34%
- activity at 5 µM (SARS-CoV-2 PsVs): 2%
